Test system: Glucose-6-Phosphatase activity
Assay: Glycogenolysis (glucose release after glucagon)
Type: cell-based, human
Details: 3D spheroids, 10 nmol/L glucagon, 3 h
Experimental: Glycogen Glucose metabolism. iHeps in 2D and 3D culture were investigated to assess the glycogen storage and glucose homeostasis regulation. Briefly, at specific time points along the 2D and 3D cultures, cells were treated for 3 h with a homemade low-glucose medium with or without 10 nmol/L glucagon (Sigma-Aldrich) to induce glucose release from the glycogen storage. Media samples were then collected and glucose concentration was determined using the High Sensitivity Glucose Assay Kit (Sigma). Periodic acid-Schiff (PAS) staining was then carried out on 2D and 8 μm cryosections of the very same samples. Specimens were fixed for 10 minutes at room temperature with 4% formol then treated with 1% periodic acid solution (Sigma-Aldrich) for 10 minutes. After washing, slides were immersed in Schiff's reagent (Fisher Scientific) for 30 minutes at RT. Before counterstaining with Mayer's Hematoxylin (Sigma), samples were washed carefully with Scott's tap water.
To investigate further, 3D specimens (iHeps and PHHs) were incubated for 4 h with 25 mM D-Glucose and 100 nM insulin to mimic hyperglycemia. Glycogen synthesis and storage were then determined using the Periodic Acid-Schiff (PAS) Staining Kit (Sigma-Aldrich) as described above. […] The media were then collected, and glucose levels determined using the High Sensitivity Glucose Assay Kit (Sigma).

Substance: glucagon
- glycogenolysis, times higher than basal release (w/o glucagon): 3 times

Reference: patent publication US20240271099A1, “METHOD FOR GENERATING HIGHLY FUNCTIONAL HEPATOCYTES BY DIFFERENTIATING HEPATOBLASTS” (INSTITUT NATIONAL DE LA SANTÉ ET DE LA RECHERCHE MÉDICALE, priority 2021, published 2024)
